Consider one molecule from patent US20070254903A1, “Novel Spiroindoline or Spiroisoquinoline Compounds, Methods of Use and Compositions Thereof” (ARENA PHARMACEUTICALS, INC., priority 2003, published 2007).

Each structure is given as a SMILES string.

This experiment concerns the target T1, human Mas receptor (Homo sapiens, UniProt P04201).
T1 construct: expressed in transfected cells
T1 sequence (P04201 1-325): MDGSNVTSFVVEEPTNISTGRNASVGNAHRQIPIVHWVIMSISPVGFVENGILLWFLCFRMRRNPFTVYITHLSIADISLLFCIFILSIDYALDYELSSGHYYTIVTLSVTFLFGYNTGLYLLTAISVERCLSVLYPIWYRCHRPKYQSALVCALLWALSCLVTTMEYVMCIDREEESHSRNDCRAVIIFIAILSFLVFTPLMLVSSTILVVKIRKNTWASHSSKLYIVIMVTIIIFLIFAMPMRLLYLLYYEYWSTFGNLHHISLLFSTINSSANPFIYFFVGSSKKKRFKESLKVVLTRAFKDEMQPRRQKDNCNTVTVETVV
Kind of experiment: Mas receptor IP3 assay (inverse agonist assay). It is filed as cell-based. On the procedure: The Mas receptor IP3 assay was performed using a mammalian cell line (HEK293) which was transfected with a plasmid containing the human Mas receptor and selected for stable expression of the receptor. For the inverse agonist assay, higher levels of Mas receptor constitutive activity were desired. To achieve this, Mas receptor expression levels were increased by transiently transfecting the same Mas receptor stable cell line with additional human Mas receptor plasmid DNA following standard procedures. These cells were used in the Mas receptor IP3 assay approximately 24 hours post-transfection.
Cells were split into 96-well plates (50,000 cells/well) and allowed to attach for a period of 6 hours. The growth medium was then replaced with medium supplemented with 4 μCi/ml [^3H]myo-inositol (100 μl; Perkin Elmer Life Sciences) and the cells were allowed to incubate for approximately 20 hours. Test compounds were serially diluted in inositol-free media containing 10 mM LiCl. The media in the plates was removed by aspiration, replaced with these test compound solutions and incubated at 37° C. for 1 hour. Following this incubation, the media was removed by aspiration and replaced with buffer containing 0.1M formic acid. The plates were then frozen overnight at −80° C. to achieve complete cell lysis.
The following day, the assay plates were thawed at room temperature. The thawed contents were then transfered to 96-well filter plates (Millipore, Multiscreen) pre-loaded with resin (Biorad, AG1-X8 100-200 mesh, formate form). The plate was filtered using a vacuum manifold and the resin was washed multiple times with water. An elution buffer was then applied (200 μl, 0.2M Ammonium formate/0.1M formic acid) and the resulting eluent was collected, under vacuum, in a 96-well collection plate. Aliquots of the eluent (80 μl) were transferred to filter plates (Whatman, Unifilter GF/C) and dried in a 45° C. oven overnight. Dried plates were counted on a scintillation counter following the addition of an appropriate scintillant (Perkin Elmer Life Sciences, Optiphase Supermix or Hi-Safe 3).

By IC50 is commonly meant the concentration that inhibits the measured activity by half. `C=CCN1CCC2(CC1)CN(C(=O)c1cccc(F)c1F)c1ccc(F)cc12` [Compound 75, 1′-(allyl)-1,2-dihydro-5-fluoro-1-(2,3-difluoro-benzoyl)-spiro[3H-indole-3,4′-piperidine]]: the 50% inhibitory concentration (IC50) stood at 298 nM (HEK293 cells over-expressing human Mas receptor, average from several experiments) and 225 nM (representative experiment, FIG. 1).
